Where two headings read alike, the source gives them in different places.
Key:
[1] = test system: P. falciparum 3D7 parasites; test: P. falciparum growth inhibition assay, 1-cycle (72 h treatment), SYBR DNA staining (library screen at 2 μg/mL and dose-response); format: cell-based, Plasmodium falciparum
[2] = test system: P. falciparum 3D7 parasites; test: P. falciparum growth inhibition assay, 2-cycle (120 h treatment), delayed-death screen and dose-response; format: cell-based, Plasmodium falciparum
[3] = test system: T. gondii RH strain (RH-Tub-eYFP) tachyzoites; test: microbe, parasite or virus in culture; format: cell-based, Toxoplasma gondii; conditions: 72 h, 72 h; for percent parasite growth at 2 µg/mL: Toxoplasma gondii
P. falciparum = conditions: cited from earlier work
[4] = Plasmodium falciparum, 3D7; P. falciparum, 2 μg/mL, 72 h; read-out: 1) Growth (%) at 72 h
[5] = Plasmodium falciparum, 3D7, library screen at 2 μg/mL, 72 h, % growth, replicate 1, read-out: Pf_72h_%Growth_Rep1
[6] = Plasmodium falciparum, 3D7, library screen at 2 μg/mL, 72 h, % growth, replicate 2, read-out: Pf_72h_%Growth_Rep2
[7] = Plasmodium falciparum, 3D7; P. falciparum, 2 μg/mL, 120 h; read-out: 2) Growth (%) at 120 h
[8] = Plasmodium falciparum, 3D7, library screen at 2 μg/mL, 120 h, % growth, replicate 1, read-out: Pf_120h_%Growth_Rep1
[9] = Plasmodium falciparum, 3D7, library screen at 2 μg/mL, 120 h, % growth, replicate 2, read-out: Pf_120h_%Growth_Rep2
[10] = library screen at 2 μg/mL, % growth, replicate 1, read-out: Tg_72h_%Growth_Rep1
[11] = library screen at 2 μg/mL, % growth, replicate 2, read-out: Tg_72h_%Growth_Rep2
[12] = 48–72 h, ref Wilson et al., 2013, read-out: IC50 at 48–72 h

With `C[C@H]1c2cccc(O)c2C(=O)C2=C(O)[C@]3(O)C(=O)C(C(N)=O)=C(O)[C@@H](N(C)C)[C@@H]3[C@@H](O)[C@@H]21` [Doxycycline, reference compound] the activity at 2 µg/mL [1, 4] was 48.6%, the activity at 2 µg/mL [1, 5] was 55.3% and the activity at 2 µg/mL [1, 6] was 41.9%. For the same molecule, the “3) Fold change (72 h/120 h)” value [2] was 6.3, the activity at 2 µg/mL [2, 7] was 7.68% and the activity at 2 µg/mL [2, 8] was 8.86%. For the same molecule, the activity at 2 µg/mL [2, 9] was 6.5%, the percent parasite growth at 2 µg/mL [3, 10] was 41% and the percent parasite growth at 2 µg/mL [3, 11] was 47.5%. For the same molecule, the IC50 (P. falciparum; [12]) was ≥ 5000 nM and the “IC50 at more than 96 h” value (P. falciparum; ref Wilson et al., 2013) was “low nanomolar range”.
With Pladienolide B the “activity in the screen against P. falciparum” value ([1]; 2 μg/mL, 72 h, active = ≥80 % growth inhibition) was “active against T. gondii but not P. falciparum”, the “activity in the screen against T. gondii” value ([3]; 2 μg/mL, active = ≥80 % growth inhibition) was “active against T. gondii but not P. falciparum” and the IC50 ([3]; read-out: IC50, T. gondii) was 6.7 ± 4.4 nM. For the same molecule, the selectivity index (HFF cells; fibroblasts over T. gondii, for cryptopleurine the parasite is not stated) was 7 and the IC50 (HFF cells; read-out: IC50, cytotoxicity against human fibroblasts, HFF, 72 h) was 47 nM.
In the case of Micrococcin P1, the IC50 ([1]; 3D7, 72 h treatment, mean ± S.D., n ≥ 3, read-out: IC50 (μM), P. falciparum) is listed as 0.02 ± 0.004 µM, the IC50 ([1]; 72 h treatment, read-out: IC50, P. falciparum) is listed as < 0.2 µM and the IC50 (P. falciparum; within 48 h, ref Rogers et al., 1998, read-out: IC50 in P. falciparum within 48 h) is listed as 35 nM.
Work on `CC[C@H]1OC(=O)[C@H](C)[C@@H](O[C@H]2C[C@@](C)(OC)[C@@H](O)[C@H](C)O2)[C@H](C)[C@@H](O[C@@H]2O[C@H](C)C[C@H](N(C)C)[C@H]2O)[C@](C)(O)C[C@@H](C)CN(C)[C@H](C)[C@@H](O)[C@]1(C)O` [Azithromycin, reference compound] yielded an activity at 2 µg/mL [1, 4] of 56.2%, an activity at 2 µg/mL [1, 5] of 59.3% and an activity at 2 µg/mL [1, 6] of 53.1%. The “3) Fold change (72 h/120 h)” value ([2]; P. falciparum, growth at 72 h / growth at 120 h, 2 μg/mL) was 6.4, the activity at 2 µg/mL [2, 7] was 8.77% and the activity at 2 µg/mL [2, 8] was 17.2%. For the same molecule, the activity at 2 µg/mL [2, 9] was 0.35%, the percent parasite growth at 2 µg/mL [3, 10] was 41.8% and the percent parasite growth at 2 µg/mL [3, 11] was 36%. For the same molecule, the IC50 (P. falciparum; [12]) was ≥ 5000 nM and the “IC50 at more than 96 h” value (P. falciparum; ref Wilson et al., 2013) was “low nanomolar range”.
For spiramycin, the IC50 (P. falciparum; [12]) is listed as ≥ 5000 nM and the “IC50 at more than 96 h” value (P. falciparum; ref Wilson et al., 2013) is listed as “low nanomolar range”.
With `CC[C@H]1OC(=O)[C@H](C)[C@@H](O[C@H]2C[C@@](C)(OC)[C@@H](O)[C@H](C)O2)[C@H](C)[C@@H](O[C@@H]2O[C@H](C)C[C@H](N(C)C)[C@H]2O)[C@](C)(O)C[C@@H](C)/C(=N\OCOCCOC)[C@H](C)[C@@H](O)[C@]1(C)O` [Roxithromycin, reference compound] the activity at 2 µg/mL [1, 4] was 30.9%, the activity at 2 µg/mL ([1]; Plasmodium falciparum, 3D7, P. falciparum, 72 h, parasite screen 2 μg/mL, % growth, replicate 1, read-out: Pf_72h_%Growth_Rep1) was 34.6% and the activity at 2 µg/mL ([1]; Plasmodium falciparum, 3D7, P. falciparum, 72 h, parasite screen 2 μg/mL, % growth, replicate 2, read-out: Pf_72h_%Growth_Rep2) was 27.2%. The “3) Fold change (72 h/120 h)” value [2] was 3.6, the activity at 2 µg/mL [2, 7] was 8.49% and the activity at 2 µg/mL ([2]; Plasmodium falciparum, 3D7, P. falciparum, 120 h, parasite screen 2 μg/mL, % growth, replicate 1, read-out: Pf_120h_%Growth_Rep1) was 18.3%. It also gave an activity at 2 µg/mL ([2]; Plasmodium falciparum, 3D7, P. falciparum, 120 h, parasite screen 2 μg/mL, % growth, replicate 2, read-out: Pf_120h_%Growth_Rep2) of -1.36%, a percent parasite growth at 2 µg/mL ([3]; T. gondii, parasite screen 2 μg/mL, % growth, replicate 1, read-out: Tg_72h_%Growth_Rep1) of 33.7% and a percent parasite growth at 2 µg/mL ([3]; T. gondii, parasite screen 2 μg/mL, % growth, replicate 2, read-out: Tg_72h_%Growth_Rep2) of 33.3%. The IC50 (P. falciparum; 48 h, ref Min et al., 2007, read-out: IC50 at 48 h) was ~4000 nM and the IC50 (P. falciparum; increased treatment duration, ref Min et al., 2007, read-out: IC50 with increased treatment duration) was 1000 to 2000 nM.
For `CC1=CCC2CC(CC3(CCC(C)C(C)O3)O2)OC(=O)C2C=C(C)C(O)C3OCC(=CC=CC(C)C1)C23O` (stereo not shown) [BIA-M1051], the Pf_72h_%Growth_Rep1 ([1]; P. falciparum 3D7, 72 h, parasite screen at 2 μg/mL, % growth, replicate 1) was 47.24%, the Pf_72h_%Growth_Rep2 ([1]; P. falciparum 3D7, 72 h, parasite screen at 2 μg/mL, % growth, replicate 2) was 1.70% and the Pf_120h_%Growth_Rep1 ([2]; P. falciparum 3D7, 120 h, parasite screen at 2 μg/mL, % growth, replicate 1) was 10.36%. It also gave a Pf_120h_%Growth_Rep2 ([2]; P. falciparum 3D7, 120 h, parasite screen at 2 μg/mL, % growth, replicate 2) of 24.90%, a Tg_72h_%Growth_Rep1 ([3]; T. gondii, parasite screen at 2 μg/mL, % growth, replicate 1) of 114.92% and a Tg_72h_%Growth_Rep2 ([3]; T. gondii, parasite screen at 2 μg/mL, % growth, replicate 2) of 98.32%.

Reference: article PMC12396409, “Screening and hit evaluation of a microbial metabolite library against the pathogenic Plasmodium falciparum and Toxoplasma gondii parasites” (International Journal for Parasitology: Drugs and Drug …, 2025)
